Results from patent US20170326155A1, “NOVEL PHARM[…] FOR NEUROMUSCULAR CONTRACTURES” (Children's Hospital Medical Center, priority 2016, published 2017).

Key:
[1] = test system: shoulder contractures following NBPI; experiment: Mouse model of neonatal brachial plexus injury (NBPI), muscle contracture formation; assay type: in vivo, mice; conditions: for severity of shoulder contractures: single systemic dose following NBPI, 4 weeks post NBPI, compared to controls, preliminary experiment
Description: Experimental Model: Unilateral brachial plexus injuries are surgically created at 5 days of age in mice. The immediate paralysis mimics that of the human condition, and can be modulated by different surgical techniques of nerve injury. Within 4 weeks after NBPI, muscle contractures form at the shoulder and elbow, replicating the human contractures. (Not shown.) Muscles can be harvested for analysis of growth and cellular behavior. The use of unilateral injuries preserves the contralateral limb as a control, minimizing the number of mice required.

[2] = test system: adult skeletal muscle regeneration; conditions: not tested in pediatric neuromuscular conditions; cited from earlier work

Structure (SMILES)	contracture severity following NBPI ([1]; neonatal treatment, preliminary)	severity of shoulder contractures [1]	severity of shoulder contractures ([1]; listed as nandrolone)	adult skeletal muscle regeneration [2]
C[C@]12CC[C@H]3[C@@H](CCC4=CC(=O)CC[C@@H]43)[C@@H]1CC[C@@H]2O [Nandrolone]	lessened contracture severity	lessened the severity of shoulder contractures	decreased the severity of the shoulder contracture	
CCCCc1nc(Cl)c(CO)n1Cc1ccc(-c2ccccc2-c2nn[nH]n2)cc1 [losartan]				improve adult skeletal muscle regeneration
